From article PMC12892976, “Alkylation-based optimization of antifungal FPPS inhibitors yields a potent, broad-spectrum lipophilic zoledronate derivative” (mBio, 2025)
Read-outs that look alike come from different tables or passages of the source.

Tests used:
[1] = system: Aspergillus fumigatus; test: MIC/MFC broth microdilution (CLSI); details: ATCC204305
Description: (§1) Antifungal susceptibility was determined by broth microdilution according to the CLSI guidelines described in M27-Ed4 ([16]). […] MFC was determined by back-plating drug-treated cultures from MIC broths onto SDA plates. The MFC was defined as the lowest concentration from which no colonies could be cultured.

[2] = system: Cryptococcus deuterogattii; test: MIC/MFC broth microdilution (CLSI); details: Cryptococcus deuterogattii;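 further: broth microdilution per CLSI M27-Ed4. MFC is the lowest concentration yielding no colonies when MIC broths are subcultured onto SDA plates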
Description: as §1

[3] = system: Saccharomyces cerevisiae; test: checkerboard drug interaction (FICI, MICc); assay type: cell-based; set-up: INH MICc / INH MICc (ITR:INH) / INH MICc (KET:INH) / INH MICc (FLC:INH): unit not given beside the values;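 further: simplified diagonal checkerboard screen pairing antifungals with FPPS inhibitors, FICI calculated under the Loewe additivity model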
[4] = system: Aspergillus fumigatus; test: checkerboard drug interaction (FICI, MICc); assay type: cell-based;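 further: simplified diagonal checkerboard screen pairing antifungals with FPPS inhibitors against Aspergillus fumigatus, with FICI calculated under the Loewe additivity model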
Description: (§2) Drug interactions between antifungals and FPPS inhibitors were investigated using a simplified checkerboard diagonal screening method ([45]). […] FICIs were determined according to the Loewe additivity model ([17]).

[5] = system: HEK-293T cells; test: MTT reduction cytotoxicity assay; assay type: cell-based; details: Homo sapiens, HEK-293T, 72 h, HEK-293T, MTT, 72 h; read-out: HEK IC50
[6] = system: Cryptococcus deuterogattii; test: checkerboard drug interaction (FICI, MICc);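 on all read-outs here: simplified diagonal checkerboard screen pairing antifungal drugs with FPPS inhibitors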; assay type: cell-based; details: C. deuterogattii; for INH FD (MIC-MICc fold decrease): fold decrease of inhibitor MIC
Description: as §2

[7] = system: Trichophyton rubrum; test: MIC/MFC broth microdilution (CLSI); details: Trichophyton rubrum
Description: as §1

[8] = system: eight fungal species; test: MIC/MFC summary across the eight fungal species of Table 1; assay type: cell-based
Description: The antifungal activity of these compounds was evaluated according to CLSI guidelines ([16]).

[9] = system: Aspergillus flavus; test: checkerboard drug interaction (FICI, MICc);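 further: simplified diagonal checkerboard screen pairing azole antifungals with FPPS inhibitors, FICI calculated under the Loewe additivity model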; assay type: cell-based; set-up: INH MICc (KET:INH) / INH MICc (FLC:INH): unit not given beside the values; details: A. flavus
[10] = system: Candida albicans; test: MIC/MFC broth microdilution (CLSI); assay type: cell-based; details: Candida albicans SC5314
Description: as §1

[11] = system: Cryptococcus neoformans; test: MIC/MFC broth microdilution (CLSI); details: Cryptococcus neoformans;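 further: susceptibility testing followed the CLSI M27-Ed4 broth microdilution document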
Description: as §1

[12] = system: Candida albicans; test: checkerboard drug interaction (FICI, MICc);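 on all read-outs here: antifungal plus FPPS inhibitor combinations on Candida albicans tested by a simplified diagonal checkerboard screen, with FICI calculated under the Loewe additivity model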; assay type: cell-based; details: C. albicans; for INH FD (MIC-MICc fold decrease): fold decrease of inhibitor MIC
Description: as §2

[13] = system: eight fungal species; test: checkerboard interaction with azoles, summary across the eight species; assay type: cell-based; details: geometric mean MIC in combination with azoles
Text: Synergy between lipophilic FPPS inhibitors and azole antifungals was investigated by determining the fractional inhibitory concentration index (FICI) (Fig. 2; Table S1 Fig. S1) ([17]). […]. Derivatives PLA9 and 11, and PDA9, 11, and 12 antagonized azoles in C. albicans, C. neoformans, and C. deuterogattii, yet were largely synergistic in C. glabrata and S. cerevisiae. […].

[14] = system: Aspergillus flavus; test: MIC/MFC broth microdilution (CLSI); details: ATCC204304
Description: as §1

[15] = system: Candida glabrata; test: checkerboard drug interaction (FICI, MICc);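 on all read-outs here: simplified diagonal checkerboard screen pairing antifungals with FPPS inhibitors, FICI calculated under the Loewe additivity model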; assay type: cell-based; details: C. glabrata; for INH FD (MIC-MICc fold decrease): fold decrease of inhibitor MIC
Description: as §2

[16] = system: Saccharomyces cerevisiae; test: MIC/MFC broth microdilution (CLSI); assay type: cell-based; details: Saccharomyces cerevisiae S288c
Description: as §1

[17] = system: Cryptococcus neoformans; test: checkerboard drug interaction (FICI, MICc);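 on all read-outs here: antifungal plus FPPS inhibitor pairs tested against Cryptococcus neoformans by simplified diagonal checkerboard screening, FICI computed under the Loewe additivity model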; assay type: cell-based; details: C. neoformans; for INH FD (MIC-MICc fold decrease): fold decrease of inhibitor MIC
Description: as §2

[18] = system: Candida glabrata; test: MIC/MFC broth microdilution (CLSI); details: Nakaseomyces glabratus, CBS138;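 further: broth microdilution following CLSI M27-Ed4, MFC taken as the lowest drug level yielding no growth once MIC wells were subcultured on SDA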
Description: as §1

[19] = system: Trichophyton rubrum; test: checkerboard drug interaction (FICI, MICc);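 further: simplified diagonal checkerboard screen pairing azole antifungals with FPPS inhibitors, FICI calculated under the Loewe additivity model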; assay type: cell-based; details: T. rubrum
Description: as §2

[20] = Fractional Inhibitory Concentration Index, fluconazole + inhibitor
[21] = Fractional Inhibitory Concentration Index, itraconazole + inhibitor
[22] = Fractional Inhibitory Concentration Index, ketoconazole + inhibitor
[23] = MIC of the inhibitor in combination with fluconazole
[24] = MIC of the inhibitor in combination with itraconazole
[25] = MIC of the inhibitor in combination with ketoconazole
[26] = MIC-MICc fold decrease of fluconazole, negative = increase
[27] = MIC-MICc fold decrease of itraconazole, negative = increase
[28] = MIC-MICc fold decrease of ketoconazole, negative = increase
[29] = MIC-MICc fold decrease of the inhibitor, with fluconazole
[30] = MIC-MICc fold decrease of the inhibitor, with itraconazole
[31] = MIC-MICc fold decrease of the inhibitor, with ketoconazole
[32] = FLC:INH combination, MIC of the inhibitor in combination with FLC
[33] = FLC:INH combination, fold decrease of FLC MIC
[34] = ITR:INH combination, MIC of the inhibitor in combination with ITR
[35] = ITR:INH combination, fold decrease of ITR MIC
[36] = KET:INH combination, MIC of the inhibitor in combination with KET
[37] = KET:INH combination, fold decrease of KET MIC

## CCCCCCCCCN1CCC[C@H]1C(=O)N[C@H](CC(=O)O)C(=O)O [PDA9]
[1]
  MFC: > 128 mg/L
  MIC: > 128 mg/L
[2]
  MFC: > 128 mg/L
  MIC: > 128 mg/L
[3]; [20]
  FICI (FLC:INH): 0.75
[3]; [21]
  FICI (ITR:INH): 2.06
[3]; [22]
  FICI (KET:INH): 0.5
[3]; [23]
  INH MICc (FLC:INH): 64
[3]; [24]
  INH MICc (ITR:INH): 16
[3]; [25]
  INH MICc (KET:INH): 64
[3]; [26]
  FLC FD (FLC:INH): 2
[3]; [27]
  ITR FD (ITR:INH): -2
[3]; [28]
  KET FD (KET:INH): 4
[3]; [29]
  INH FD (FLC:INH): 4
[3]; [30]
  INH FD (ITR:INH): 16
[3]; [31]
  INH FD (KET:INH): 4
[4]; [20]
  FICI (FLC:INH): 2
[4]; [21]
  FICI (ITR:INH): 0.25
[4]; [22]
  FICI (KET:INH): 1.5
[4]; [23]
  INH MICc (FLC:INH): 256
[4]; [24]
  INH MICc (ITR:INH): 1
[4]; [25]
  INH MICc (KET:INH): 128
[4]; [26]
  FLC FD (FLC:INH): 1
[4]; [27]
  ITR FD (ITR:INH): 4
[4]; [28]
  KET FD (KET:INH): 1
[4]; [29]
  INH FD (FLC:INH): 1
[4]; [30]
  INH FD (ITR:INH): 256
[4]; [31]
  INH FD (KET:INH): 2
[5]
  IC50: > 256 mg/L
[6]; FLC:INH combination
  FICI: ≥4
  INH FD (MIC-MICc fold decrease): 1
[6]; [32]
  INH MICc: 256
[6]; [33]
  FLC FD (MIC-MICc fold decrease): -4
[6]; ITR:INH combination
  FICI: ≥4
  INH FD (MIC-MICc fold decrease): 1
[6]; [34]
  INH MICc: 256
[6]; [35]
  ITR FD (MIC-MICc fold decrease): < -4
[6]; KET:INH combination
  FICI: 2
  INH FD (MIC-MICc fold decrease): 1
[6]; [36]
  INH MICc: 256
[6]; [37]
  KET FD (MIC-MICc fold decrease): 1
[7]
  MFC: > 128 mg/L
  MIC: > 128 mg/L
[8]; across eight species, read-out: Geometric mean MFC
  MFC: > 128 mg/L
[8]; geometric mean across eight species, read-out: GM fungal MIC
  MIC: > 128 mg/L
[8]; read-out: Geometric mean MIC
  MIC: > 128 mg/L
[9]; [20]
  FICI (FLC:INH): 1
[9]; [21]
  FICI (ITR:INH): 1.02
[9]; [22]
  FICI (KET:INH): 1
[9]; [23]
  INH MICc (FLC:INH): 128
[9]; [24]
  INH MICc (ITR:INH): 4
[9]; [25]
  INH MICc (KET:INH): 128
[9]; [26]
  FLC FD (FLC:INH): 2
[9]; [27]
  ITR FD (ITR:INH): 1
[9]; [28]
  KET FD (KET:INH): 2
[9]; [29]
  INH FD (FLC:INH): 2
[9]; [30]
  INH FD (ITR:INH): 64
[9]; [31]
  INH FD (KET:INH): 2
[10]
  MFC: > 128 mg/L
  MIC: > 128 mg/L
[11]
  MFC: > 128 mg/L
  MIC: > 128 mg/L
[12]; FLC:INH combination
  FICI: ≥4
  INH FD (MIC-MICc fold decrease): 4
[12]; [32]
  INH MICc: 64
[12]; [33]
  FLC FD (MIC-MICc fold decrease): < -4
[12]; ITR:INH combination
  FICI: ≥4
  INH FD (MIC-MICc fold decrease): 4
[12]; [34]
  INH MICc: 64
[12]; [35]
  ITR FD (MIC-MICc fold decrease): < -4
[12]; KET:INH combination
  FICI: ≥4
  INH FD (MIC-MICc fold decrease): 4
[12]; [36]
  INH MICc: 64
[12]; [37]
  KET FD (MIC-MICc fold decrease): < -4
[13]
  GM fungal MICc: 52.3
[14]
  MFC: > 128 mg/L
  MIC: > 128 mg/L
[15]; FLC:INH combination
  FICI: 0.31
  INH FD (MIC-MICc fold decrease): 64
[15]; [32]
  INH MICc: 4
[15]; [33]
  FLC FD (MIC-MICc fold decrease): 4
[15]; ITR:INH combination
  FICI: 0.28
  INH FD (MIC-MICc fold decrease): 128
[15]; [34]
  INH MICc: 2
[15]; [35]
  ITR FD (MIC-MICc fold decrease): 4
[15]; KET:INH combination
  FICI: 0.28
  INH FD (MIC-MICc fold decrease): 128
[15]; [36]
  INH MICc: 2
[15]; [37]
  KET FD (MIC-MICc fold decrease): 4
[16]
  MFC: > 128 mg/L
  MIC: > 128 mg/L
[17]; FLC:INH combination
  FICI: ≥4
  INH FD (MIC-MICc fold decrease): 1
[17]; [32]
  INH MICc: 256
[17]; [33]
  FLC FD (MIC-MICc fold decrease): < -4
[17]; ITR:INH combination
  FICI: ≥4
  INH FD (MIC-MICc fold decrease): 2
[17]; [34]
  INH MICc: 128
[17]; [35]
  ITR FD (MIC-MICc fold decrease): -4
[17]; KET:INH combination
  FICI: ≥4
  INH FD (MIC-MICc fold decrease): 2
[17]; [36]
  INH MICc: 128
[17]; [37]
  KET FD (MIC-MICc fold decrease): -4
[18]
  MFC: > 128 mg/L
  MIC: > 128 mg/L
[19]; [20]
  FICI (FLC:INH): 3
[19]; [21]
  FICI (ITR:INH): 2
[19]; [22]
  FICI (KET:INH): 0.75
[19]; [23]
  INH MICc (FLC:INH): 256
[19]; [24]
  INH MICc (ITR:INH): 256
[19]; [25]
  INH MICc (KET:INH): 64
[19]; [26]
  FLC FD (FLC:INH): -2
[19]; [27]
  ITR FD (ITR:INH): 1
[19]; [28]
  KET FD (KET:INH): 2
[19]; [29]
  INH FD (FLC:INH): 1
[19]; [30]
  INH FD (ITR:INH): 1
[19]; [31]
  INH FD (KET:INH): 4
